# According to patent EP0810221A1 (MITSUBISHI CHEMICAL CORPORATION, priority 1995, dated 1996):
# What was measured:
# [1] = target: T1, cathepsin B (Sigma, C-6286) (Bos taurus, UniProt P07688); assay: Inhibitory activity against cathepsin B; format: biochemical; conditions: Inhibitory activity against cathepsin B (Table-5)
# T1 construct: purchased Sigma C-6286
# Method: Inhibitory activity against cathepsin B (Sigma, C-6286) was determined according to a method described in a literature (Biochemical Journal, Vol. 201, p. 189, 1982).
# m-Calpain = target: T2, m-Calpain (Rattus norvegicus, UniProt Q07009); assay: Inhibitory activity against calpain (m-Calpain purified from brains of rats); format: biochemical
# T2 construct: m-Calpain was purified from brains of rats; from tissue; host or cells: rat brain
# T2 sequence (Q07009 20-700 limits assumed): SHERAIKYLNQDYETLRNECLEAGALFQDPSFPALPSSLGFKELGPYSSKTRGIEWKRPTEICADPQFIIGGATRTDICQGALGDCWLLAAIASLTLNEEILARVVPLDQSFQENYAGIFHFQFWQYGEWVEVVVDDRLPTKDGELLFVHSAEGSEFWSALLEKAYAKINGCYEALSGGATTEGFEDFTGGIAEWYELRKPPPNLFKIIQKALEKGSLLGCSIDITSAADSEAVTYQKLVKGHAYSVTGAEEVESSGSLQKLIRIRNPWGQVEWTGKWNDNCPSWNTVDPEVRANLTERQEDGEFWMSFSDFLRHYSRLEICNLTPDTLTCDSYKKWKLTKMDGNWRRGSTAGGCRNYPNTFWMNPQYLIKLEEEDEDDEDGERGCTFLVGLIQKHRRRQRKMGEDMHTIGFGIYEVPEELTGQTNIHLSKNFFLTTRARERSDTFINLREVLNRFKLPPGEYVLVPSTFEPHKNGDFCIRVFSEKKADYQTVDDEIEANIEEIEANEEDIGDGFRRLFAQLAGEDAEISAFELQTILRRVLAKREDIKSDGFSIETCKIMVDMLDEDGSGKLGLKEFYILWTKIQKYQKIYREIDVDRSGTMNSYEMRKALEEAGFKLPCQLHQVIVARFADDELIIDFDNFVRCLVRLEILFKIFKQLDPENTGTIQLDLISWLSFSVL
# T2 sequence (Q64537 1-270 partner): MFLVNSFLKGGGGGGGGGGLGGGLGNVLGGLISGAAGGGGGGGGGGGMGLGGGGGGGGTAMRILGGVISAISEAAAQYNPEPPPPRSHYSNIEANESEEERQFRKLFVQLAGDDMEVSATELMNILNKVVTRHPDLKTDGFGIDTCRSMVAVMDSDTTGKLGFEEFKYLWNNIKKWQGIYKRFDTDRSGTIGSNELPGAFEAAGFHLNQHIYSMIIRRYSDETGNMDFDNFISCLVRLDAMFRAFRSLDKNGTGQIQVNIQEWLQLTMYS
# Method: m-Calpain was purified from brains of rats according to a method described in a literature (Journal of Biological Chemistry, Vol. 259, p. 3210, 1984), and the inhibitory activity was determined in a manner according to a published method (Journal of Biological Chemistry, Vol. 259, p. 12489, 1984).
# [2] = Inhibitory activity against calpain (Table-6)
# [3] = Inhibitory activity against calpain (continuation of Table-6)
Compound,IC50 [1] [nM],IC50 (m-Calpain; [2]) [nM],IC50 (m-Calpain; [3]) [nM]
"Cc1ccccc1COC(=O)N[C@@H](CC(C)C)C(=O)N[C@H]1CCOC1O (stereo partly drawn) [Example 18, (3S)-3-{(S)-4-methyl-2-(2-methylbenzyloxycarbonylamino)valerylamino}-2-tetrahydrofuranol]",580,440,–
"CC(C)C[C@H](NC(=O)OCC1CCCCO1)C(=O)N[C@H]1CCOC1O (stereo partly drawn) [Example 24, (3S)-3-{(S)-4-methyl-2-(2-tetrahydropyranylmethoxycarbonylamino)valerylamino}-2-tetrahydrofuranol]",2900,1300,–
"CC(C)C[C@H](NC(=O)OCc1ccccn1)C(=O)N[C@H]1CCOC1O (stereo partly drawn) [Example 25, (3S)-3-{(S)-4-methyl-2-(2-pyridylmethoxycarbonylamino)valerylamino}-2-tetrahydrofuranol]",2900,1050,–
"CC(C)C[C@H](NC(=O)OC1CCCCC1)C(=O)N[C@H]1CCOC1O (stereo partly drawn) [Example 27, (3S)-3-((S)-2-cyclohexyloxycarbonylamino-4-methylvalerylamino)-2-tetrahydrofuranol]",1200,650,–
"CC(C)C[C@H](NC(=O)Oc1ccccc1)C(=O)N[C@H]1CCOC1O (stereo partly drawn) [Example 28, (3S)-3-((S)-4-methyl-2-phenoxycarbonylaminovalerylamino)-2-tetrahydrofuranol]",1700,520,–
"CC(C)C[C@H](NC(=O)Cc1cccc2ccccc12)C(=O)N[C@H]1CCOC1O (stereo partly drawn) [Example 33, (3S)-3-{(S)-4-methyl-2-(1-naphthylacetylamino)valerylamino}-2-tetrahydrofuranol]",950,110,–
CC(C)C[C@H](NC(=O)COc1ccccc1)C(=O)N[C@H]1CCOC1O (some centres unmarked) [Example 34],1350,330,–
"CC(C)C[C@H](NC(=O)c1ccccc1)C(=O)N[C@H]1CCOC1O (stereo partly drawn) [Example 39, (3S)-3-((S)-2-benzoylamino-4-methylvalerylamino)-2-tetrahydrofuranol]",200,370,–
"CC(C)C[C@H](NC(=O)c1cccc(F)c1)C(=O)N[C@H]1CCOC1O (stereo partly drawn) [Example 41, (3S)-3-{(S)-2-(3-fluorobenzoylamino)-4-methylvalerylamino}-2-tetrahydrofuranol]",870,1150,–
"Cc1ccc(C(=O)N[C@@H](CC(C)C)C(=O)N[C@H]2CCOC2O)cc1C (stereo partly drawn) [Example 48, (3S)-3-{(S)-2-(3,4-dimethylbenzoylamino)-4-methylvalerylamino}-2-tetrahydrofuranol]",86,380,–
"CC(C)C[C@H](NC(=O)c1ccc(C(F)(F)F)cc1)C(=O)N[C@H]1CCOC1O (stereo partly drawn) [Example 51, (3S)-3-{(S)-4-methyl-2-(4-trifluoromethylbenzoylamino)valerylamino}-2-tetrahydrofuranol]",210,480,–
"COc1cccc(OC)c1C(=O)N[C@@H](CC(C)C)C(=O)N[C@H]1CCOC1O (stereo partly drawn) [Example 55, (3S)-3-{(S)-2-(2,6-dimethoxybenzoylamino)-4-methylvalerylamino}-2-tetrahydrofuranol]",1650,840,–
"COc1cc(OC)cc(C(=O)N[C@@H](CC(C)C)C(=O)N[C@H]2CCOC2O)c1 (stereo partly drawn) [Example 56, (3S)-3-{(S)-2-(3,5-dimethoxybenzoylamino)-4-methylvalerylamino}-2-tetrahydrofuranol]",900,640,–
"CC(C)C[C@H](NC(=O)c1ccc2c(c1)OCO2)C(=O)N[C@H]1CCOC1O (stereo partly drawn) [Example 58, (3S)-3-{(S)-4-methyl-2-(3,4-methylenedioxybenzoylamino)valerylamino}-2-tetrahydrofuranol]",460,–,440
"CC(C)C[C@H](NC(=O)c1cccc2ccccc12)C(=O)N[C@H]1CCOC1O (stereo partly drawn) [Example 59, (3S)-3-{(S)-4-methyl-2-(1-naphthoylamino)valerylamino}-2-tetrahydrofuranol]",800,–,400
"CC(C)C[C@H](NC(=O)c1ccc2ccccc2c1)C(=O)N[C@H]1CCOC1O (stereo partly drawn) [Example 60, (3S)-3-{(S)-4-methyl-2-(2-naphthoylamino)valerylamino}-2-tetrahydrofuranol]",34,–,470
"CC(C)C[C@H](NC(=O)c1ccco1)C(=O)N[C@H]1CCOC1O (stereo partly drawn) [Example 61, (3S)-3-{(S)-2-(2-furoylamino)-4-methylvalerylamino}-2-tetrahydrofuranol]",1200,–,350
"CCc1cc(C(=O)N[C@@H](CC(C)C)C(=O)N[C@H]2CCOC2O)n(C)n1 (stereo partly drawn) [Example 62, (3S)-3-{(S)-2-(3-ethyl-1-methyl-5-pyrazole)carbonylamino-4-methylvalerylamino}-2-tetrahydrofuranol]",500,–,1000
"CC(C)C[C@H](NS(=O)(=O)c1cccc2ccccc12)C(=O)N[C@H]1CCOC1O (stereo partly drawn) [Example 75, (3S)-3-{(S)-4-methyl-2-(1-naphtylsulfonylamino)valerylamino}-2-tetrahydrofuranol]",2400,–,380

# More lines, now with the values ahead:
IC50 [1] [nM],IC50 (m-Calpain; [2]) [nM],IC50 (m-Calpain; [3]) [nM],Compound
640,390,–,"CC(C)C[C@H](NC(=O)OCc1ccc(Cl)cc1)C(=O)N[C@H]1CCOC1O (stereo partly drawn) [Example 17, (3S)-3-{(S)-2-(4-chlorobenzyloxycarbonylamino)-4-methylvalerylamino}-2-tetrahydrofuranol]"
890,480,–,"Cc1ccc(COC(=O)N[C@@H](CC(C)C)C(=O)N[C@H]2CCOC2O)cc1 (stereo partly drawn) [Example 19, (3S)-3-{(S)-4-methyl-2-(4-methylbenzyloxycarbonylamino)valerylamino}-2-tetrahydrofuranol]"
1050,560,–,"COc1ccccc1COC(=O)N[C@@H](CC(C)C)C(=O)N[C@H]1CCOC1O (stereo partly drawn) [Example 20, (3S)-3-{(S)-2-(2-methoxybenzyloxycarbonylamino)-4-methylvalerylamino)-2-tetrahydrofuranol]"
1170,340,–,"COc1ccc(COC(=O)N[C@@H](CC(C)C)C(=O)N[C@H]2CCOC2O)cc1 (stereo partly drawn) [Example 21, (3S)-3-{(S)-2-(4-methoxybenzyloxycarbonylamino)-4-methylvalerylamino}-2-tetrahydrofuranol]"
550,820,–,"CC(C)C[C@H](NC(=O)c1ccc(F)cc1)C(=O)N[C@H]1CCOC1O (stereo partly drawn) [Example 42, (3S)-3-{(S)-2-(4-fluorobenzoylamino)-4-methylvalerylamino}-2-tetrahydrofuranol]"
140,360,–,"CC(C)C[C@H](NC(=O)c1ccc(Cl)cc1)C(=O)N[C@H]1CCOC1O (stereo partly drawn) [Example 43, (3S)-3-{(S)-2-(4-chlorobenzoylamino)-4-methylvalerylamino}-2-tetrahydrofuranol]"
1450,580,–,"Cc1ccccc1C(=O)N[C@@H](CC(C)C)C(=O)N[C@H]1CCOC1O (stereo partly drawn) [Example 44, (3S)-3-{(S)-4-methyl-2-(2-methylbenzoylamino)valerylamino}-2-tetrahydrofuranol]"
490,560,–,"Cc1cccc(C(=O)N[C@@H](CC(C)C)C(=O)N[C@H]2CCOC2O)c1 (stereo partly drawn) [Example 45, (3S)-3-{(S)-4-methyl-2-(3-methylbenzoylamino)valerylamino}-2-tetrahydrofuranol]"
200,650,–,"CCc1ccc(C(=O)N[C@@H](CC(C)C)C(=O)N[C@H]2CCOC2O)cc1 (stereo partly drawn) [Example 50, (3S)-3-{(S)-2-(4-ethylbenzoylamino)-4-methylvalerylamino}-2-tetrahydrofuranol]"
150,670,–,"COc1ccc(C(=O)N[C@@H](CC(C)C)C(=O)N[C@H]2CCOC2O)cc1 (stereo partly drawn) [Example 53, (3S)-3-{(S)-2-(4-methoxybenzoylamino)-4-methylvalerylamino}-2-tetrahydrofuranol]"
240,–,250,"CCOc1ccc(C(=O)N[C@@H](CC(C)C)C(=O)N[C@H]2CCOC2O)cc1 (stereo partly drawn) [Example 57, (3S)-3-{(S)-2-(4-ethoxybenzoylamino)-4-methylvalerylamino}-2-tetrahydrofuranol]"
190,–,700,"COc1ccc(C=CC(=O)N[C@@H](CC(C)C)C(=O)N[C@H]2CCOC2O)cc1 (stereo partly drawn) [Example 65, (3S)-3-{(S)-2-(4-methoxycinnamoylamino)-4-methylvalerylamino}-2-tetrahydrofuranol]"
